Data as given in patent publication US8119661B2, “Piperidine derivatives and their use as muscarinic receptor modulators” (AstraZeneca AB, priority 2007, dated 2012).

Columns and labels:
[1] = molecular target: T1, hM1 (human Muscarinic receptor subtype 1) (Homo sapiens, UniProt P11229); experiment: Human M1 calcium mobilization FLIPR assay; assay type: cell-based; conditions: CHO cells expressing hM1, intracellular Ca2+ release
T1 construct: expressed in transfected cells; host or cells: CHO cells (Chinese hamster ovary cells, ATCC)
T1 sequence (P11229 1-460): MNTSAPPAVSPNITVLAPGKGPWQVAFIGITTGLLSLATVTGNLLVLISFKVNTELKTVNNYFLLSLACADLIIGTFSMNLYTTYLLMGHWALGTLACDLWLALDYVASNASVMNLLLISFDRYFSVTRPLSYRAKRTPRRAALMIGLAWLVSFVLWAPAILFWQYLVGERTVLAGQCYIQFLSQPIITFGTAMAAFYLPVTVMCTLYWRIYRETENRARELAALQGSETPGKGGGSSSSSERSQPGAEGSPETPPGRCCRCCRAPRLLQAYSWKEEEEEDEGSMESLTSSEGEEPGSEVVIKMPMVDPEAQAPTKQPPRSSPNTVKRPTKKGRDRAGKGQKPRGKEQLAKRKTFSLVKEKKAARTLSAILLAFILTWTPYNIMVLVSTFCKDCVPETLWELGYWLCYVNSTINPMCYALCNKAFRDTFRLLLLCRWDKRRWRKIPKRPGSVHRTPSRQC
Experimental: (§1) The compound activity in the present invention (EC50 or IC50) is measured using a 384 plate-based imaging assay that monitors drug induced intracellular Ca^2+ release in whole cells. Activation of hM1 (human Muscarinic receptor subtype 1, gene bank access NM_000738), rM1 (rat Muscarinic receptor subtype 1, gene bank access NM_080773), hM3 (human Muscarinic receptor subtype 3, gene bank access NM_000740NM_000740) and hM5 (human Muscarinic receptor subtype 5, gene bank access NM_0121258), receptors expressed in CHO cells (Chinese hamster ovary cells, ATCC) is quantified in a Molecular Devices FLIPR II™ instrument as an increase in fluorescent signal. Inhibition of hM3 and hM5 by compounds is determined by the decrease in fluorescent signal in response to 2 nM acetylcholine activation.
(§2) Prior to experiment, the cell culture medium is removed from the plates by inversion. […] Plates are incubated at 37° C. for 60 minutes prior to start the experiment. The incubation is terminated by washing the cells four times in assay buffer, leaving a residual 25 μl buffer per well. Cell plates are then transferred to the FLIPR, ready for compound additions.
(§3) The day of experiment, acetylcholine and compounds are diluted in assay buffer in three-fold concentration range (10 points serial dilution) for addition by FLIPR instrument. For all calcium assays, a baseline reading is taken for 10 seconds followed by the addition of 12.5 μl of compounds, resulting in a total well volume of 37.5 μl. Data is collected every second for 60 pictures and then every 6 seconds for 20 pictures prior to the addition of agonist. For hM3 and hM5, before agonist addition, a second baseline reading is taken for 10 seconds followed by the addition of 12.5 μl of agonist or buffer, producing a final volume of 50 μl. After agonist stimulation, the FLIPR continues to collect data every second for 60 pictures and then every 6 seconds for 20 pictures. The fluorescence emission is read using filter 1 (emission 510-570 nm) by the FLIPR on board CCD camera.
(§4) Calcium mobilization output data are calculated as the maximal relative fluorescence unit (RFU) minus the minimal value for both compound and agonist reading frame (except for hM1 and rM1 using only the maximal RFU). Data are analyzed using sigmoidal fits of a non-linear curve-fitting program (XLfit version 4.2.2 Excel add-in version 4.2.2 build 18 math 1Q version 2.1.2 build 18). All pEC50 and pIC50 values are reported as arithmetic means±standard error of mean of ‘n’ independent experiments.

cloned human M4 receptor = molecular target: T2, cloned human M4 receptor (Homo sapiens, UniProt P08173); experiment: hM4 receptor GTPγS binding; assay type: biochemical; conditions: CHO membranes expressing hM4, [35S]GTPγS binding
T2 construct: purchased Perkin-Elmer RBHM4M; host or cells: CHO cell membranes
T2 sequence (P08173 1-479): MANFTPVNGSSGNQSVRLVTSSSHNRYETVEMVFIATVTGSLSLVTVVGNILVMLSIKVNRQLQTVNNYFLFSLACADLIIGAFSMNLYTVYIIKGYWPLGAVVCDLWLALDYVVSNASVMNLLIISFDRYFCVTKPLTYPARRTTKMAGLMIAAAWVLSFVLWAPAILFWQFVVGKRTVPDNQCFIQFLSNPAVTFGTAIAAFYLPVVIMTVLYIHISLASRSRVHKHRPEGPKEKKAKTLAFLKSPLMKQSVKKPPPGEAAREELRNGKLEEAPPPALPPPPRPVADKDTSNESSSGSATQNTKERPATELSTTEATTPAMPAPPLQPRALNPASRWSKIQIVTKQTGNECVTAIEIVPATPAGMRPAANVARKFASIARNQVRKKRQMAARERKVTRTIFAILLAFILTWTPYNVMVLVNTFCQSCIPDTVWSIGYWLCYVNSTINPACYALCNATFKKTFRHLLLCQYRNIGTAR
Experimental: Membranes produced from Chinese hamster ovary cells (CHO) expressing the cloned human M4 receptor (human Muscarinic receptor subtype 4, gene bank access NM_000741), are obtained from Perkin-Elmer (RBHM4M). The membranes are thawed at 37° C., passed 3 times through a 23-gauge blunt-end needle, diluted in the GTPγS binding buffer (50 mM Hepes, 20 mM NaOH, 100 mM NaCl, 1 mM EDTA, 5 mM MgCl2, pH 7.4, 100 μM DTT). The EC50, IC50 and Emax of the compounds of the invention are evaluated from 10-point dose-response curves (three fold concentration range) done in 60 μl in 384-well non-specific binding surface plate (Corning). Ten microliters from the dose-response curves plate (5× concentration) are transferred to another 384 well plate containing 25 μl of the following: 10 μg of hM4 membranes, 500 μg of Flashblue beads (Perkin-Elmer) and GDP 40 μM. An additional 15 μl containing 3.3× (60,000 dpm) of GTPγ^35S (0.4 nM final) are added to the wells resulting in a total well volume of 50 μl. Basal and maximal stimulated [^35S]GTPγS binding are determined in absence and presence of 30 μM final of acetylcholine agonist. The membranes/beads mix are pre-incubated for 15 minutes at room temperature with 40 μM GDP prior to distribution in plates (20 μM final). The reversal of acetylcholine-induced stimulation (10 μM final) of [^35S]GTPγS binding is used to assay the antagonist properties (IC50) of the compounds. The plates are incubated for 60 minutes at room temperature then centrifuged at 400 rpm for 5 minutes. The radioactivity (cpm) is counted in a Trilux (Perkin-Elmer).
Values of EC50, IC50 and Emax are obtained using sigmoidal fits of a non-linear curve-fitting program (XLfit version 4.2.2 Excel add-in version 4.2.2 build 18 math 1Q version 2.1.2 build 18) of percent stimulated [^35S]GTPγS binding vs. log(molar ligand). All pEC50 and pIC50 values are reported as arithmetic means±standard error of mean of ‘n’ independent experiments.

[2] = molecular target: T3, hM3 (human Muscarinic receptor subtype 3) (Homo sapiens, UniProt P20309); experiment: Human M3 calcium mobilization FLIPR assay; assay type: cell-based; conditions: CHO cells expressing hM3, intracellular Ca2+ release
T3 construct: expressed in transfected cells; host or cells: CHO cells (Chinese hamster ovary cells, ATCC)
T3 sequence (P20309 whole entry): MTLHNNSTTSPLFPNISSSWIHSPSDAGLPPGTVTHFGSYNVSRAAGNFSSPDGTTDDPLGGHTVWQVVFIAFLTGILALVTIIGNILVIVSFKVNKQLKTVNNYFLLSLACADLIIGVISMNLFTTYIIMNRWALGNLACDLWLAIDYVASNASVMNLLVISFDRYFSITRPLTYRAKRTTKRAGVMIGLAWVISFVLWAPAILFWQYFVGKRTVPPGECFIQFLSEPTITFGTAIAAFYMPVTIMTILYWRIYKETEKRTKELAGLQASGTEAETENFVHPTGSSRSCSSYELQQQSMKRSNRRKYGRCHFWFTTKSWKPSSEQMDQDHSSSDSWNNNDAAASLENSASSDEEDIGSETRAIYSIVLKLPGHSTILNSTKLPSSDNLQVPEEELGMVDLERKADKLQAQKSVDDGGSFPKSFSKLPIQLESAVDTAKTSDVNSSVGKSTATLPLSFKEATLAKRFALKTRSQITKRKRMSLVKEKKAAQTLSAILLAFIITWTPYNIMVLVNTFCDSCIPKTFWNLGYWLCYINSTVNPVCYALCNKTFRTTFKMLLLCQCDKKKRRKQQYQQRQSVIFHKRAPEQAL
Experimental: as §1, §2, §3, §4

SMILES	EC50 [1] [nM]	EC50 (cloned human M4 receptor) [nM]	EC50 [2] [nM]
CCOC(=O)N1CCC(C)(N2CCC(N3C(=O)N[C@@H]4CCCC[C@H]43)CC2)CC1 [Example 04, Ethyl 4-[4-[(3aR,7aR)-2-oxo-3a,4,5,6,7,7a-hexahydro-3H-benzoimidazol-1-yl]-1-piperidyl]-4-methyl-piperidine-1-carboxylate]	3.3	> 6100	> 4200
CC(C)OC(=O)N1CCC(C)(N2CCC(N3C(=O)N[C@@H]4CCCC[C@H]43)CC2)CC1 [Example 05, Propan-2-yl 4-[4-[(3aR,7aR)-2-oxo-3a,4,5,6,7,7a-hexahydro-3H-benzoimidazol-1-yl]-1-piperidyl]-4-methyl-piperidine-1-carboxylate]	25	> 30000	> 49000
CC1(N2CCC(N3C(=O)N[C@@H]4CCCC[C@H]43)CC2)CCN(C(=O)C2CC2)CC1 [Example 06, (3aR,7aR)-1-[1-[1-(cyclopropanecarbonyl)-4-methyl-4-piperidyl]-4-piperidyl]-3a,4,5,6,7,7a-hexahydro-3H-benzoimidazol-2-one]	51	> 30000	> 49000
CC(C)OC(=O)N1CCC(C)(N2CCC(N3C(=O)C[C@H]4CCCC[C@@H]43)CC2)CC1 [Example 14, Propan-2-yl 4-[4-[(3aR,7aS)-2-oxo-3a,4,5,6,7,7a-hexahydro-3H-indol-1-yl]-1-piperidyl]-4-methyl-piperidine-1-carboxylate]	19	> 30000	> 40000
CC1(N2CCC(N3C(=O)C[C@H]4CCCC[C@@H]43)CC2)CCN(C(=O)C2CC2)CC1 [Example 15, (3aR,7aS)-1-[1-[1-(cyclopropanecarbonyl)-4-methyl-4-piperidyl]-4-piperidyl]-3a,4,5,6,7,7a-hexahydro-3H-indol-2-one]	36	> 30000	> 40000
CC#CCOC(=O)N1CCC(C)(N2CCC(N3C(=O)N[C@H]4CCCC[C@@H]43)CC2)CC1 [Example 16, But-2-ynyl 4-[4-[(3aS,7aS)-2-oxo-3a,4,5,6,7,7a-hexahydro-3H-benzimidazol-1-yl]-1-piperidyl]-4-methyl-piperidine-1-carboxylate]	3.6	> 90000	> 40000
CCC(=O)N1CCC(C)(N2CCC(N3C(=O)N[C@H]4CCCC[C@@H]43)CC2)CC1 [Example 18, (3aS,7aS)-3-[1-(4-methyl-1-propanoyl-4-piperidyl)-4-piperidyl]-3a,4,5,6,7,7a-hexahydro-1H-benzimidazol-2-one]	66.6	> 30000	> 40000
